Laboratory results from the supplement of paper PMC10627819.

Experiments:
B. subtilis 168 [1] = assay: fitness (endpoint OD595 vs no drug) (fraction); higher = more growth
Summary of the method: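 Fitness was defined as the optical density at the transition into stationary phase relative to the robust mean of no-drug control wells. Values were capped at 1. Cultures were started at OD595 0.01 in 384-well plates (30 µl, or 55 µl for S. pneumoniae) in TSB, LB Lennox or CY at 37 °C. OD595 was recorded every 30 min over 14 h, with the first reading subtracted as background.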

B. subtilis 168 [2] = assay: Bliss interaction score (quartile over a dose matrix) (fitness difference); higher = more antagonism (negative = synergy)
Summary of the method: (§1)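 Growth in each well was taken as OD595 at entry into stationary phase. Dividing by the plate's robust no-drug mean and capping at 1 gave fitness, and single-drug fitness was inferred from the combination data. The Bliss score, observed minus product-expected fitness, is summarised by quartiles over technical, biological and donor/recipient replicates.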

S. aureus DSM 20231 = assay: as above
Summary of the method: as §1

S. aureus Newman = assay: as above
Summary of the method: as §1

S. pneumoniae D39V = assay: as above
Summary of the method: as §1
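Wherever Bliss interaction score (quartile over a dose matrix) is given: first quartile when negative (synergy) and third quartile when positive (antagonism).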

O=C(O)c1cn(C2CC2)c2cc(N3CCNCC3)c(F)cc2c1=O [Ciprofloxacin] + COc1cc(Cc2cnc(N)nc2N)cc(OC)c1OC [Trimethoprim]
fitness, B. subtilis 168 [1], one replicate
Conditions | partner 0.1 µg/mL | partner 0.2 µg/mL | partner 0.4 µg/mL | partner 1 µg/mL | partner 2 µg/mL
first compound 0.0098 µg/mL | 0.863 | 0.721 | 0.516 | 0.342 | 0.321
first compound 0.0195 µg/mL | 0.835 | 0.552 | 0.457 | 0.333 | 0.349
first compound 0.039 µg/mL | 0.412 | 0.355 | 0.334 | 0.276 | 0.246

fitness, B. subtilis 168 [1]
Conditions | first compound 0.0098 µg/mL | first compound 0.0195 µg/mL | first compound 0.039 µg/mL
partner 0.125 µg/mL | 0.647 | 0.546 | 0.424
partner 0.25 µg/mL | 0.547 | 0.428 | 0.355
partner 0.5 µg/mL | 0.479 | 0.444 | 0.387

Conditions | Bliss interaction score
B. subtilis 168 [2] | 0.135
S. aureus DSM 20231 | -0.106
S. aureus Newman | -0.165
S. pneumoniae D39V | 0.0557

CO/N=C(\C(=O)N[C@@H]1C(=O)N2C(C(=O)O)=C(COC(N)=O)CS[C@H]12)c1ccco1 [Cefuroxime] + CCC[C@@H]1C[C@@H](C(=O)N[C@@H]([C@H]2O[C@H](SC)[C@H](O)[C@@H](O)[C@H]2O)[C@@H](C)O)N(C)C1 [Lincomycin]
fitness, B. subtilis 168 [1], one replicate
Conditions | first compound 0.04875 µg/mL | first compound 0.0975 µg/mL | first compound 0.195 µg/mL | first compound 0.39 µg/mL | first compound 0.78 µg/mL | first compound 1.562 µg/mL | first compound 3.125 µg/mL | first compound 6.25 µg/mL
partner 0.1 µg/mL | 0.88 | 0.8 | – | 0.388 | 0.386 | 0.303 | 0.248 | 0.156
partner 0.2 µg/mL | 0.865 | 0.713 | – | 0.358 | 0.372 | 0.265 | 0.19 | 0.137
partner 0.4 µg/mL | – | – | – | 0.373 | 0.319 | 0.265 | 0.175 | 0.101
partner 0.8 µg/mL | 0.505 | 0.467 | 0.359 | – | – | – | – | –
partner 1.6 µg/mL | 0.498 | 0.428 | 0.323 | – | – | – | – | –

fitness, B. subtilis 168 [1]
Conditions | first compound 0.04875 µg/mL | first compound 0.0975 µg/mL | first compound 0.195 µg/mL
partner 0.1 µg/mL | – | – | 0.554
partner 0.2 µg/mL | – | – | 0.521
partner 0.4 µg/mL | 0.682 | 0.644 | 0.396

Conditions | Bliss interaction score
B. subtilis 168 [2] | 0.0554
S. aureus DSM 20231 | -0.223
S. aureus Newman | -0.0658
S. pneumoniae D39V | 0.0595

CN(C)c1cc(NC(=O)CNC(C)(C)C)c(O)c2c1C[C@H]1C[C@H]3[C@H](N(C)C)C(O)=C(C(N)=O)C(=O)[C@@]3(O)C(O)=C1C2=O [Tigecycline] + COc1cc(Cc2cnc(N)nc2N)cc(OC)c1OC [Trimethoprim]
fitness, B. subtilis 168 [1], one replicate
Conditions | partner 0.1 µg/mL | partner 0.125 µg/mL | partner 0.2 µg/mL | partner 0.25 µg/mL | partner 0.4 µg/mL | partner 0.5 µg/mL | partner 1 µg/mL | partner 2 µg/mL
first compound 0.039 µg/mL | 0.879 | 0.739 | 0.77 | – | 0.58 | – | 0.505 | 0.438
first compound 0.078 µg/mL | 0.896 | 0.727 | 0.754 | – | 0.577 | – | 0.455 | 0.408
first compound 0.125 µg/mL | – | 0.898 | – | 0.749 | – | 0.694 | – | –
first compound 0.156 µg/mL | 0.883 | 0.758 | 0.814 | – | 0.546 | – | 0.402 | 0.357
first compound 0.25 µg/mL | – | 0.798 | – | 0.546 | – | 0.55 | – | –
first compound 0.5 µg/mL | – | 0.87 | – | 0.695 | – | 0.633 | – | –

fitness, B. subtilis 168 [1]
Conditions | first compound 0.039 µg/mL | first compound 0.078 µg/mL | first compound 0.156 µg/mL
partner 0.25 µg/mL | 0.657 | 0.653 | 0.677
partner 0.5 µg/mL | 0.567 | 0.532 | 0.529

Conditions | Bliss interaction score
B. subtilis 168 [2] | 0.121
S. aureus DSM 20231 | -0.0664
S. aureus Newman | -0.0503
S. pneumoniae D39V | -0.119
